The values below come from PubChem BioAssay (NCI).

Among the test systems are A498 renal; A549 NSCLC; CCRF-CEM leukemia; COLO 205 colon; EKVX NSCLC; HCC-2998 colon; HCT-116 colon; HCT-15 colon; HT29 colon; KM12 colon; NCI-H23 lung; OVCAR-3 ovarian; OVCAR-8 ovarian; SF-295 CNS; SF-539 CNS; SK-MEL-2 melanoma; SK-MEL-28 melanoma; SK-MEL-5 melanoma; SW-620 colon; U251 CNS.
Assay in all cases: DTP human tumour cell line panel, 48 h

What is called TGI is the concentration giving total growth inhibition. A high value points to lower sensitivity of the cells.

The structures appear in SMILES notation.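 These data come from cells grown in 96-well plates and exposed to compound for 48 hours at five concentrations. TGI: concentration producing complete growth inhibition.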 Some results are limits rather than exact numbers.

In the case of `C/C(=C/C(=O)Nc1ccccc1)Nc1onc(C)c1C`, the TGI with A498 renal, in the test with A549 NSCLC, in the test with CCRF-CEM leukemia, with COLO 205 colon, with EKVX NSCLC and in the test on HCC-2998 colon was over 100 µM each time. The TGI in the test on HCT-116 colon, with HCT-15 colon, in the test with HT29 colon, in the test with KM12 colon, in the test with NCI-H23 lung and with OVCAR-3 ovarian was over 100 µM in each case. Also, the TGI in the test with OVCAR-8 ovarian, with SF-295 CNS, with SF-539 CNS, with SK-MEL-2 melanoma, in the test on SK-MEL-28 melanoma and in the test on SK-MEL-5 melanoma was over 100 µM in each case. Moreover, the TGI in the test on SW-620 colon and in the test with U251 CNS was over 100 µM each time.

Consider `O=NN1C(c2ccccc2)CNC(=O)CC1c1ccccc1` (stereo not given), for which the TGI with A498 renal is over 100 µM; in the test on A549 NSCLC, over 100 µM; in the test with CCRF-CEM leukemia it was over 100 µM; in the test with COLO 205 colon, 69.8 µM; in the test on EKVX NSCLC, over 100 µM; in the test with HCC-2998 colon it was over 100 µM. In addition, the TGI was over 100 µM in the test with HCT-116 colon; over 100 µM in the test with HCT-15 colon; over 100 µM with HT29 colon; over 100 µM in the test on KM12 colon; 97.9 µM in the test on NCI-H23 lung; over 92.7 µM in the test on OVCAR-3 ovarian. Besides, the TGI was over 100 µM in the test on OVCAR-8 ovarian; 98.8 µM with SF-295 CNS; 96.1 µM in the test with SF-539 CNS; over 80 µM with SK-MEL-2 melanoma; over 100 µM with SK-MEL-28 melanoma; over 93.1 µM in the test on SK-MEL-5 melanoma. The TGI in the test on SW-620 colon and in the test on U251 CNS was over 100 µM each time.

In the case of `FC(F)(F)c1ccc2c(c1)N(CCCNCCN1CCOCC1)c1ccccc1S2`, the TGI stood at 34.9 µM in the test with A498 renal; 28.3 µM with A549 NSCLC; 30.4 µM with CCRF-CEM leukemia; 6.84 µM in the test on COLO 205 colon; 29.4 µM in the test on EKVX NSCLC; 4.06 µM in the test with HCC-2998 colon. Further, the TGI in the test with HCT-116 colon stood at 11.2 µM; in the test with HCT-15 colon, 19.5 µM; in the test with HT29 colon, 10.4 µM; with KM12 colon, 25 µM; in the test with NCI-H23 lung it was 24.7 µM; with OVCAR-3 ovarian, 24.8 µM. Also, the TGI in the test with OVCAR-8 ovarian was 32.8 µM; in the test on SF-295 CNS it was 27.4 µM; in the test on SF-539 CNS it was 16.9 µM; in the test on SK-MEL-2 melanoma it was 13.9 µM; in the test with SK-MEL-28 melanoma, 17.3 µM; in the test with SK-MEL-5 melanoma, 13.8 µM. Further, the TGI in the test on SW-620 colon was found to be 21.9 µM; with U251 CNS it was 23.7 µM.

For `COc1cc(OC2OC(CO)C(O)C(O)C2O)c2c(O)c3c(=O)cc(C)oc3cc2c1` (stereo not given), the concentration for total growth inhibition (TGI) in the test on A498 renal, with A549 NSCLC, in the test on CCRF-CEM leukemia, with COLO 205 colon, in the test on EKVX NSCLC and in the test on HCC-2998 colon was over 100 µM each time. Also, the total growth inhibition concentration (TGI) in the test with HCT-116 colon, in the test on HCT-15 colon, in the test on HT29 colon, in the test on KM12 colon, with NCI-H23 lung and with OVCAR-3 ovarian was over 100 µM each time. The TGI in the test with OVCAR-8 ovarian, with SF-295 CNS, in the test with SF-539 CNS, with SK-MEL-2 melanoma, with SK-MEL-28 melanoma and in the test on SK-MEL-5 melanoma was over 100 µM each time. Moreover, the TGI in the test on SW-620 colon and in the test with U251 CNS was over 100 µM each time.
